Measured values as given in US8309577B2, “Quinuclidine compounds as α-7 nicotinic acetylcholine receptor ligands” (Bristol-Myers Squibb Company, priority 2008, dated 2012).
Like-named read-outs stand apart in the source and are kept apart here.

Molecular target: T1, α-7 nicotinic acetylcholine receptor channel expressed in HEK 293 cells (Rattus norvegicus, UniProt Q05941)
T1 construct: expressed in transfected cells
Experiment: Ca2+-sensitive fluorescence-based FLIPR assay, α7 nicotinic ACh receptor channel function (agonist)
Type: cell-based
Method: I) α7 Nicotinic Acetycholine Receptor Binding. Membranes were prepared for binding using HEK293 cells stably expressing the rat α7 nicotinic acetycholine receptor (rat α7 nAChR). Cells were homogenized at 4° C. in hypotonic lysis buffer consisting of 10 mM Tris (pH 7.4), 5 mM EDTA and protease inhibitors and centrifuged at 32000×g for 20 minutes. The pellet was washed once in membrane wash buffer consisting of 50 mM Tris (pH 7.4), 1 mM EDTA and protease inhibitors and centrifuged at 32000×g for 20 minutes. This pellet was then resuspended in assay buffer consisting 50 mM KH2PO4 (pH 7.4 at 25° C.), 1 mM EDTA, 0.005% Triton-X 100 and 0.1% (v/v) Sigma Protease Inhibitor Cocktail. Aliquots were then frozen in dry ice/ethanol and kept at −80° C. until the day of the assay. II) A Ca^2+-Sensitive, Fluorescence-Based Assay α-7 for Nicotinic Acetylcholine Receptor Channel Function In Mammalian Cells (“FLIPR”). Summary: Lead compounds are evaluated for agonist activity at […], α3β4, […], and α1β1δ1ε sub-types of nicotinic ACh receptor ion channels expressed in mammalian HEK 293 cells. Agonist potency and efficacy values are determined from kinetic fluorescence Ca^2+ influx measurements made using a 384 well FLIPR (Fluorescence Image Plate Reader). […] In this assay, channel expressing HEK cell lines seeded in 384 well assay plates are loaded with a membrane permeant fluorescent Ca^2+ indicator dye, whose 510 nm green emission signal increases in response to elevation of intracellular Ca^2+ concentration. The basal fluorescence from the cells is monitored in real time, followed by the acute addition of test compounds.
Materials and Methods: Reagents: The acetomethoxy (AM) ester of the Ca^2+ indicator dye Fluo-4 was obtained from InVitrogen, (Carlsbad, Calif.). Acetylcholine and all buffer constituents were purchased from Sigma Chemical Company, St. Louis, Mo. G418 and Minimal Essential Medium were purchased from InVitrogen Life Technologies, Carlsbad, Calif. Fetal bovine serum was purchased from (InVitrogen, Carlsbad, Calif.).
Cell Culture: HEK-293 cells were grown in Minimal Essential Medium containing 10% (v/v) fetal bovine serum at 37° C. in a 5% CO2 incubator. HEK-293 cells stably expressing the ion channels were grown in the same medium with the addition of 500 μg/ml G418.
Ca^2+ flux assays of Ca^2+ channels expressed in HEK-293 cells: HEK-293 cells expressing the ion channels of interest were plated in 384 well, black-walled, clear-bottomed, poly-D-lysine coated plates at a density of ˜20,000 cells/well in 20 μl of Minimal Essential Medium containing 10% (v/v) fetal bovine serum and incubated for 2 days at 29° C. in a 5% CO2 incubator. Prior to assay, cells were loaded with the Fluo-4 AM ester. […] Dye loading was allowed to proceed for 90 minutes at room temperature at which time the dye loading solution was removed and replaced with 40 μl/well of Hanks buffer. Cells loaded with dye were loaded onto a FLIPR384 (Molecular Devices, Sunnyvale, Calif.). Fluo-4 dye was excited using the 488 nm line of an argon laser. Emission was filtered using a 540+/−30 nm bandpass filter. For evaluation of the effects of test compounds using the Ca^2+ flux assay, compounds to be tested were provided in assay ready plates. For nicotinic receptor ion channel expressing cells, the assay was initiated by the addition of 20 μl/well of Hanks buffer containing test compounds. For all assays, data were collected at 1 Hz for 10 seconds (baseline), at which time the compound containing stimulus buffers are added, and further measurements collected at 0.33 Hz for 3 min.
Data Analysis: The statistical robustness of the nicotinic receptor Ca^2+ flux assays is determined from blanks and totals wells. […] The raw fluorescence units data files generated on the FLIPR plate reader are automatically exported and processed by in-house data analysis tools.

[1] = FLIPR α7 activity rating (EC50, nM), Table 1, HEK 293 cells, agonist Ca2+ flux
[2] = FLIPR α7 (EC50, nM), Table 1, HEK 293 cells, agonist Ca2+ flux

T1 sequence (Q05941 23-502): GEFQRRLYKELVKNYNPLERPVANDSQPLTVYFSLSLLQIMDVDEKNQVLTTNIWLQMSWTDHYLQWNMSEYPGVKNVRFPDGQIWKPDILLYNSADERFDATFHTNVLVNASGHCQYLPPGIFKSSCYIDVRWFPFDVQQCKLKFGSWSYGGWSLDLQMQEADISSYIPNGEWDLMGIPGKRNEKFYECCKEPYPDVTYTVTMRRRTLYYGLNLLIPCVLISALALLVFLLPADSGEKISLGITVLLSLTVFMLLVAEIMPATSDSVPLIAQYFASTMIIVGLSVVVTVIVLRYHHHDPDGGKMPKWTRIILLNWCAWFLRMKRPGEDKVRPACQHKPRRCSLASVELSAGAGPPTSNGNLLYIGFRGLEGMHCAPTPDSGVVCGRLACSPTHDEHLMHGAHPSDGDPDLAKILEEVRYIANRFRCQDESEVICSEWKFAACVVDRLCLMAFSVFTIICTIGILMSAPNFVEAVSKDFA

Row | Compound | EC50 [1] [nM] | EC50 [nM] | EC50 [2] [nM]
1 | COc1ccc(-c2cc(NC3=NC[C@@]4(CN5CCC4CC5)O3)ncn2)cn1 [Example 43, (R)—N-(6-(6-Methoxypyridin-3-yl)pyrimidin-4-yl)-4H-1′-azaspiro[oxazole-5,3′-bicyclo[2.2.2]octan]-2-amine] | < 100 |  | 
2 | c1ccc2cc(-c3cc(NC4=NC[C@@]5(CN6CCC5CC6)O4)ncn3)ccc2c1 [Example 44, (R)—N-(6-(Naphthalen-2-yl)pyrimidin-4-yl)-4H-1′-azaspiro[oxazole-5,3′-bicyclo[2.2.2]octan]-2-amine] | 100 to 1000 |  | 
3 | c1ccc(-c2csc(NC3=NCC4(CN5CCC4CC5)O3)n2)cc1 (centres unmarked) [Example 45] | 100 to 1000 |  | 
4 | c1cc2nc(NC3=NCC4(CN5CCC4CC5)O3)sc2cc1N1CCOCC1 (centres unmarked) [Example 46] | 1000 to 100000 | 2000 | 
5 | Fc1ccc2sc(NC3=NCC4(CN5CCC4CC5)O3)nc2c1 (centres unmarked) [Example 47] | < 100 |  | 
6 | FC(F)(F)c1ccc2nc(NC3=NCC4(CN5CCC4CC5)O3)sc2c1 (centres unmarked) [Example 48] | 100 to 1000 |  | 790
7 | FC(F)(F)Oc1ccc2nc(NC3=NCC4(CN5CCC4CC5)O3)sc2c1 (centres unmarked) [Example 49] | 1000 to 100000 | 3330 | 
8 | Fc1cccc2sc(NC3=NCC4(CN5CCC4CC5)O3)nc12 (centres unmarked) [Example 50] | < 100 |  | 
9 | Fc1cc2nc(NC3=NCC4(CN5CCC4CC5)O3)sc2cc1F (centres unmarked) [Example 52] | 100 to 1000 |  | 325
10 | COc1ccc2sc(NC3=NCC4(CN5CCC4CC5)O3)nc2c1 (centres unmarked) [Example 53] | 1000 to 100000 |  | 
11 | COc1cccc2sc(NC3=NCC4(CN5CCC4CC5)O3)nc12 (centres unmarked) [Example 54] | 1000 to 100000 |  | 
12 | COc1cc2nc(NC3=NCC4(CN5CCC4CC5)O3)sc2cc1OC (centres unmarked) [Example 55] | 1000 to 100000 |  | 
13 | c1ccc(-c2nnc(NC3=NCC4(CN5CCC4CC5)O3)s2)cc1 (centres unmarked) [Example 56] | 1000 to 100000 |  | 
14 | CN(C)C(=O)c1ccc2nc(NC3=NCC4(CN5CCC4CC5)O3)sc2c1 (centres unmarked) [Example 57] | 1000 to 100000 | 3900 | 
15 | O=C(c1ccc2nc(NC3=NCC4(CN5CCC4CC5)O3)sc2c1)N1CCCCC1 (centres unmarked) [Example 58] | 1000 to 100000 |  | 
16 | Fc1ccc(-c2nnc(NC3=NCC4(CN5CCC4CC5)O3)s2)cc1 (centres unmarked) [Example 59] | 1000 to 100000 | 4240 | 

Row | Compound | EC50 [1] [nM] | EC50 [nM] | EC50 [2] [nM]
17 | c1coc(-c2nnc(NC3=NCC4(CN5CCC4CC5)O3)s2)c1 (centres unmarked) [Example 60] | 1000 to 100000 | 2550 | 
18 | Brc1ccc2nc(NC3=NCC4(CN5CCC4CC5)O3)sc2c1 (centres unmarked) [Example 61] | 100 to 1000 |  | 
19 | Cc1nc2cc(NC3=NCC4(CN5CCC4CC5)O3)ccc2s1 (centres unmarked) [Example 63] | 1000 to 100000 | 2600 | 
20 | Clc1ccc2nc(NC3=NCC4(CN5CCC4CC5)O3)nn2c1 (centres unmarked) [Example 66] | 100 to 1000 |  | 360
21 | Cc1noc(C)c1NC1=NCC2(CN3CCC2CC3)O1 (centres unmarked) [Example 67] | 1000 to 100000 |  | 
22 | Cc1cnn(C)c1NC1=NCC2(CN3CCC2CC3)O1 (centres unmarked) [Example 68] | 1000 to 100000 |  | 
23 | N#Cc1ccc2nc(NC3=NCC4(CN5CCC4CC5)O3)sc2c1 (centres unmarked) [Example 70] | 100 to 1000 |  | 
24 | c1nc2cc(NC3=NCC4(CN5CCC4CC5)O3)ccc2s1 (centres unmarked) [Example 71] | 1000 to 100000 |  | 
25 | c1nc2ccc(NC3=NCC4(CN5CCC4CC5)O3)cc2s1 (centres unmarked) [Example 72] | 1000 to 100000 |  | 
26 | c1ccc2ncc(NC3=NCC4(CN5CCC4CC5)O3)cc2c1 (centres unmarked) [Example 73] | 1000 to 100000 | 7550 | 
27 | Cc1ccc2nc(NC3=NCC4(CN5CCC4CC5)O3)nn2c1 (centres unmarked) [Example 74] | < 100 |  | 
28 | c1cnc2cc(NC3=NCC4(CN5CCC4CC5)O3)ccc2n1 (centres unmarked) [Example 75] | 1000 to 100000 |  | 
29 | COc1ccc2nc(NC3=NCC4(CN5CCC4CC5)O3)[nH]c2c1 (centres unmarked) [Example 76] | 100 to 1000 |  | 
30 | Fc1ccc2nc(NC3=NCC4(CN5CCC4CC5)O3)[nH]c2c1 (centres unmarked) [Example 77] | 100 to 1000 |  | 355
31 | c1cc2cn[nH]c2cc1NC1=NCC2(CN3CCC2CC3)O1 (centres unmarked) [Example 78] | 1000 to 100000 |  | 
32 | FC(F)(F)c1ccc2nc(NC3=NCC4(CN5CCC4CC5)O3)nn2c1 (centres unmarked) [Example 83] | 100 to 1000 |  | 240
